# Measurements published in patent publication US9539272B2, “HDAC 6 inhibitor-based methods for treating cancer” (SLOAN-KETTERING INSTITUTE FOR CANCER RESEARCH, priority 2009, dated 2017).
# Assays:
# [1] = system: LNCaP cells; test: Cell growth and viability by trypan blue exclusion, LNCaP; conditions: LNCaP, 8 μM nil-tubacin alone
# Procedure: 5×10^4 cells were seeded per well in a 24-well plate and cultured overnight prior to treating with the compound and/or other agents as indicated for each study. Cells were harvested at 24, 48 and 72 hrs after treatment by trypsin digestion. […] At least three independent analyses were performed for each time point.
# To monitor cell growth and viability, cells were seeded in triplicate at 5×10^4 cells in 1 ml of medium in 24-well plates. The drugs were added at the indicated concentrations 24 h after seeding. Cells were harvested by trypsin digestion at 24 h, 48 h and 72 h following drug additions. Cell number and viability were determined by trypan blue exclusion.
# [2] = molecular target: recombinant human HDAC1 (Homo sapiens, UniProt Q13547); test: In vitro HDAC assay with fluorogenic substrate, HDAC 1
# Procedure: (§1) Inhibition of HDAC 1 and HDAC 6 were analyzed with a fluorogenic substrate according to manufacture's protocol (HDAC assay reagents were purchased from BPS Biosciences, San Diego, Calif.). 50 μl reaction mixture, which contains 1×HDAC assay buffer, 5 units of recombinant human HDAC1 or HDAC 6, 10 μM substrate 3 and 1 μl inhibitor in DMSO, was incubated at 37° C. for 1 hour. […] The fluorescence intensity was measured at excitation of 360 nm and emission of 460 nm with SpectraMax Gemini XS microplate reader (Molecular Devices, Sunny Calif.).
# [3] = system: acetylated tubulin and acetylated histone H3 in A549 cells; conditions: 24 hrs, tubacin 0.2, 2 or 20 μM; cited from earlier work
# [4] = molecular target: T1, recombinant human HDAC 6 (Homo sapiens, UniProt Q9UBN7); test: In vitro HDAC assay with fluorogenic substrate, HDAC 6
# T1 sequence (Q9UBN7 1-1215): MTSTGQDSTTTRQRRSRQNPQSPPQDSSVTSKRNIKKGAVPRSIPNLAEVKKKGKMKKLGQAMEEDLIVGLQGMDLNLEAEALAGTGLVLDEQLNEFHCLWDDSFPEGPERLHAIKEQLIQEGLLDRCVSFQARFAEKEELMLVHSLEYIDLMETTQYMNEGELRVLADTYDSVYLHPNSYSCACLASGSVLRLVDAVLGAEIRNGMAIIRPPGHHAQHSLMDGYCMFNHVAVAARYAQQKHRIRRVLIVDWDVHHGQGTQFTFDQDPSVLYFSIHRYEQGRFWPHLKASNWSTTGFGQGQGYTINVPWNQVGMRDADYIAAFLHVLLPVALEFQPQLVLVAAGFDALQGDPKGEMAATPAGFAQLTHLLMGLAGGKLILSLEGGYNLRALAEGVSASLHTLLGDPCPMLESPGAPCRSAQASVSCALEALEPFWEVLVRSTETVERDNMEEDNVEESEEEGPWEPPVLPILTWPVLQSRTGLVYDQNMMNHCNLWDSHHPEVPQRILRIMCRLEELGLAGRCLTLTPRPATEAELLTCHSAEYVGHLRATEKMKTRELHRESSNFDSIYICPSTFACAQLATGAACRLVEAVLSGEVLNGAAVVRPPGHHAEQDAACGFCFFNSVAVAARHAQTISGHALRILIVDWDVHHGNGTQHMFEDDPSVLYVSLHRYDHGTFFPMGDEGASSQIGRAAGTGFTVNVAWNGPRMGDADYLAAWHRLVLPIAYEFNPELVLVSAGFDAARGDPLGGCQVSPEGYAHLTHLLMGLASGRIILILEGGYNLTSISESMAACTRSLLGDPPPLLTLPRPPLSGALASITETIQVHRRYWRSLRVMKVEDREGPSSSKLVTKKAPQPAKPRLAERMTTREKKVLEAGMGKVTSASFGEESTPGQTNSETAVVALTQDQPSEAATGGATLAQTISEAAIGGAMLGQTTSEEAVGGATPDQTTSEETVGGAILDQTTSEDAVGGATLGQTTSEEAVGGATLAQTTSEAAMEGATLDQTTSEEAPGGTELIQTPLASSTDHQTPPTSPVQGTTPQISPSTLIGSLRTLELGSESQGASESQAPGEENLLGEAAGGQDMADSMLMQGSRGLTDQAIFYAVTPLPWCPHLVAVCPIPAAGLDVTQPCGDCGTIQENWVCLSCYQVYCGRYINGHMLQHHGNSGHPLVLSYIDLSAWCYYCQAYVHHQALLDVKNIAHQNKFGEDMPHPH
# Procedure: as §1
# recombinant human HDAC1, sequence (Q13547 whole entry): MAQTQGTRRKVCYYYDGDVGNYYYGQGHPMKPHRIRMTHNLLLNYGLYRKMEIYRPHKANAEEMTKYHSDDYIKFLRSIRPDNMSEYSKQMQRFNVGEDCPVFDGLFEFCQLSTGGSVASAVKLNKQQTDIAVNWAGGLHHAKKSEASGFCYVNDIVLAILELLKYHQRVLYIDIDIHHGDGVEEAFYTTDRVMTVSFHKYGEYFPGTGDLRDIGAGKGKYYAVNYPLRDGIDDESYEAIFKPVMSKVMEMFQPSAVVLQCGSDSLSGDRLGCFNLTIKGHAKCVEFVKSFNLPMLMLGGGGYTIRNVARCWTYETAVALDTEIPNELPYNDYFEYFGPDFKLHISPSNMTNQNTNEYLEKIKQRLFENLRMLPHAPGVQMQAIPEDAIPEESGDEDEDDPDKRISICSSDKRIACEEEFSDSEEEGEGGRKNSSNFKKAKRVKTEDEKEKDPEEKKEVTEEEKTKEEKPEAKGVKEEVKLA
compound,measurement,setting,value
O=C(O)CCCCCCC(=O)Nc1ccc([C@H]2O[C@@H](CSc3nc(-c4ccccc4)c(-c4ccccc4)o3)C[C@@H](c3ccc(CO)cc3)O2)cc1 [niltubacin],effect on cell growth or cell viability,[1],did not have a detectable effect
same,IC50,[2],> 100 nM
same,accumulation of acetylated histone H3,[3],did not induce accumulation
same,accumulation of acetylated tubulin,[3],did not induce the accumulation
same,IC50,[4],> 100 nM
